Tests used:
[1] = target: T1, main protease (M^pro) of SARS-COV-2 (Severe acute respiratory syndrome coronavirus 2, UniProt P0DTD1); test: biochemical
[2] = target: T1, main protease (M^pro) of SARS-COV-2; test: TEM observation of the reaction of MCAP-AuNP with M^pro after M^pro inhibitor treatment; format: biochemical; details: TEM images, FIG. 10B-10D

| SMILES | IC50 [1] [µM] | activity of M^pro after M^pro inhibitor treatment (effect on MCAP-AuNP, TEM image) [2] |
| --- | --- | --- |
| COc1ccc([C@@H]2CC(=O)c3c(O)cc(O)cc3O2)cc1O [hesperetin] | 43.1 | inhibited |
| CC(=O)N[C@@H](CC(C)C)C(=O)N[C@@H](CC(C)C)C(=O)N[C@H](C=O)CCCNC(=N)N [leupeptin] | 28.6 | inhibited |
| Cc1cccc(C)c1OCC(=O)N[C@@H](Cc1ccccc1)[C@@H](O)C[C@H](Cc1ccccc1)NC(=O)[C@H](C(C)C)N1CCCNC1=O [lopinavir] | 10.7 | inhibited |
